Drawing on publication PMC8286840, “Identifying SARS-CoV-2 antiviral compounds by screening for small molecule inhibitors of Nsp3 papain-like protease” (Biochemical Journal, 2021), this text covers remaining activity for 31 molecules.

For test [1], the target named is T1, SARS-CoV-2 PLpro (nsp3 1564–1878) (Severe acute respiratory syndrome coronavirus 2, UniProt P0DTD1). Description: biochemical. The arrangement: FRET-quenched peptide (Pro3) cleavage by PLpro, 10 min pre-incubation, slope over 20 min, normalised to no-compound control. The following applies: low concentration screen, read-out: % of control remaining.
Test [2] concerns the target T1, SARS-CoV-2 PLpro (nsp3 1564–1878). The test can be described thus: biochemical. Set-up: FRET-quenched peptide (Pro3) cleavage by PLpro, 10 min pre-incubation, slope over 20 min, normalised to no-compound control. The conditions noted are these: high concentration screen, read-out: % of control remaining.

Counter-ions that a name gives are not always drawn. Like-named read-outs stand apart in the source and are kept apart here.

For `CN1C(=O)CC[C@H]1c1cccnc1` [(-)-Cotinine], the remaining activity at 1.25 µM in test [1] (Well no.=228) stood at 97.9%; in test [1] (Well no.=3103), 99.3%. Also, the remaining activity at 3.75 µM in test [2] (Well no.=228) was 99.4%; in test [2] (Well no.=3103), 101%.
Turning to `O=c1cccc2n1C[C@H]1CNC[C@H]2C1` [(-)-Cytisine], the remaining activity at 1.25 µM in test [1] (Well no.=3797) came out at 97.8%. Moreover, the remaining activity at 3.75 µM in test [2] (Well no.=3797) is 101%.
Consider `CC[C@]12CCCN3CCc4c(n(c5ccccc45)C(=O)C1)[C@@H]32` [(-)-Eburnamonine], for which the remaining activity at 1.25 µM in test [1] (Well no.=3380) came out at 96.6%. For the same molecule, the remaining activity at 3.75 µM in test [2] (Well no.=3380) was 95%.
For the molecule `Oc1cc(O)c2c(c1)O[C@H](c1ccc(O)c(O)c1)[C@H](O)C2` [(-)-Epicatechin], the remaining activity at 1.25 µM in test [1] (Well no.=3348) was found to be 96.9%. Besides, in test [2] (Well no.=3348), the remaining activity at 3.75 µM was 98.5%.
Turning to `CNC[C@H](O)c1ccc(O)c(O)c1` [(-)-Epinephrine bitartrate], the remaining activity at 1.25 µM in test [1] (Well no.=509) stood at 102%. For the same molecule, in test [2] (Well no.=509), the remaining activity at 3.75 µM was 99.3%.
Regarding `CN1CC[C@@]2(C)c3cc(O)ccc3N(C)[C@@H]12` [(-)-Eseroline fumarate], the remaining activity at 1.25 µM in test [1] (Well no.=751) was 96.8%. The remaining activity at 3.75 µM in test [2] (Well no.=751) came to 93.5%.
With `C[C@H](O)[C@@H](O)[C@@H](O)[C@H](O)C=O` [(-)-Fucose], in test [1] (Well no.=6549), the remaining activity at 1.25 µM was 98.1%. Further, in test [2] (Well no.=6549), the remaining activity at 3.75 µM is 91.4%.
Regarding `C[C@H]1CC[C@@H](C(C)(C)O)CC2=C1CC[C@@H]2C` [(-)-Guaiol], in test [1] (Well no.=3076), the remaining activity at 1.25 µM stood at 98.4%. Besides, the remaining activity at 3.75 µM in test [2] (Well no.=3076) came out at 99.3%.
Regarding `CC(C)NC[C@H](O)c1ccc(O)c(O)c1` [(-)-Isoproterenol hydrochloride], the remaining activity at 1.25 µM in test [1] (Well no.=917) was determined as 107%. In addition, in test [2] (Well no.=917), the remaining activity at 3.75 µM turned out to be 106%.
For `COC(=O)[C@H]1[C@H]2C[C@H]3c4[nH]c5cc(OC)ccc5c4CCN3C[C@H]2C[C@@H](OC(=O)c2cc(OC)c(OC)c(OC)c2)[C@@H]1OC` [(-)-Isoreserpine], the remaining activity at 1.25 µM in test [1] (Well no.=3246) came to 102%. Further, the remaining activity at 3.75 µM in test [2] (Well no.=3246) was determined as 100%.
As to `C[C@@]12N[C@@H](Cc3ccccc31)c1ccccc12` [(-)-MK-801 hydrogen maleate], the remaining activity at 1.25 µM in test [1] (Well no.=799) amounted to 101%. The remaining activity at 3.75 µM in test [2] (Well no.=799) worked out at 99.2%.
As for `COc1ccc2cc([C@@H](C)C(=O)O)ccc2c1` [(-)-Naproxen sodium], the remaining activity at 1.25 µM in test [1] (Well no.=1110) is 95.3%. The remaining activity at 3.75 µM in test [2] (Well no.=1110) was 97.6%.
Take `CN1CCC[C@H]1c1cccnc1` [(-)-Nicotine]: the remaining activity at 1.25 µM in test [1] (Well no.=3328) came out at 96.5%. The remaining activity at 3.75 µM in test [2] (Well no.=3328) turned out to be 99.2%.
Turning to `CCCN1CCC[C@@H]2Cc3[nH]ncc3C[C@H]21` [(-)-Quinpirole hydrochloride], the remaining activity at 1.25 µM in test [1] (Well no.=1269) was 96.5%. In test [2] (Well no.=1269), the remaining activity at 3.75 µM was 99.7%.
Take `C[N+]1(C)[C@@H]2C[C@@H](OC(=O)[C@H](CO)c3ccccc3)C[C@H]1[C@@H]1O[C@@H]12` [(-)-Scopolamine methyl bromide]: in test [1] (Well no.=1510), the remaining activity at 1.25 µM came out at 96.7%. Moreover, in test [2] (Well no.=1510), the remaining activity at 3.75 µM was determined as 97.5%.
In the case of `CCN1CCC[C@H]1CNC(=O)c1cc(S(N)(=O)=O)ccc1OC` [(-)-Sulpiride], the remaining activity at 1.25 µM in test [1] (Well no.=1364) turned out to be 101%. For the same molecule, the remaining activity at 3.75 µM in test [2] (Well no.=1364) was 99.2%.
In the case of `CC1=C(O)C(=O)[C@@H]2O[C@@H]2C1=O` [(-)-Terreic acid - (1R,6S)-3-Hydroxy-4-methyl-7-oxabicyclo[4.1.0]hept-3-ene-2,5-dione], the remaining activity at 1.25 µM in test [1] (Well no.=2398) worked out at 99.2%. Also, the remaining activity at 3.75 µM in test [2] (Well no.=2398) worked out at 104%.
Take `NC(=O)c1cccc(NC(=O)/C=C/c2c[nH]c3ccccc23)c1` [(E)-3-(3-(1H-indol-3-yl)acrylamido)benzamide]: the remaining activity at 1.25 µM in test [1] (Well no.=5576) came out at 93.5%. For the same molecule, the remaining activity at 3.75 µM in test [2] (Well no.=5576) is 93.4%.
In the case of `NC/C=C/C(=O)O` [(E)-4-amino-2-butenoic acid], the remaining activity at 1.25 µM in test [1] (Well no.=1283) was determined as 103%. In test [2] (Well no.=1283), the remaining activity at 3.75 µM turned out to be 101%.
Take `O=c1[nH]c(=O)n([C@H]2C[C@H](O)[C@@H](CO)O2)cc1/C=C/Br` [(E)-5-(2-Bromovinyl)-2'-deoxyuridine]: in test [1] (Well no.=83), the remaining activity at 1.25 µM was found to be 94.9%. For the same molecule, the remaining activity at 3.75 µM in test [2] (Well no.=83) turned out to be 94.4%.
Regarding `Clc1ccc(N/N=C(\c2ccccc2)c2ccccn2)nc1` [(E)-5-chloro-2-(2-(phenyl(pyridin-2-yl)methylene)hydrazinyl)pyridine], the remaining activity at 1.25 µM in test [1] (Well no.=5428) came out at 91.3%. Besides, the remaining activity at 3.75 µM in test [2] (Well no.=5428) was 96.4%.
`COc1cc(/C=C/C(=O)NCCn2c(C)cc3ccccc32)cc(OC)c1OC` [(E)-N-(2-(2-methyl-1H-indol-1-yl)ethyl)-3-(3,4,5-trimethoxyphenyl)acrylamide]: the remaining activity at 1.25 µM in test [1] (Well no.=5914) stood at 103%. In addition, the remaining activity at 3.75 µM in test [2] (Well no.=5914) was 99.4%.
With `O=C(O)[C@H]1Cc2ccccc2CN1` [(R)-1,2,3,4-Tetrahydro-3-isoquinolinecarboxylic acid], the remaining activity at 1.25 µM in test [1] (Well no.=8608) is 102%. Moreover, in test [2] (Well no.=8608), the remaining activity at 3.75 µM is 101%.
With `CC(C)C[C@@H](C(=O)O)c1cc(-c2ccc(C(F)(F)F)cc2)cc(-c2ccc(C(F)(F)F)cc2)c1` [(R)-2-(4,4''-bis(trifluoromethyl)-[1,1':3',1''-terphenyl]-5'-yl)-4-methylpentanoic acid], in test [1] (Well no.=5455), the remaining activity at 1.25 µM came to 99.6%. Further, the remaining activity at 3.75 µM in test [2] (Well no.=5455) turned out to be 106%.
As to `COc1ccc(CC[C@H]2CCC[C@@H](CCc3ccc(OC)cc3)N2C[C@@H](O)CO)cc1` [(R)-3-((2R,6S)-2,6-bis(4-methoxyphenethyl)piperidin-1-yl)propane-1,2-diol hydrochloride], the remaining activity at 1.25 µM in test [1] (Well no.=5614) was 101%. In addition, in test [2] (Well no.=5614), the remaining activity at 3.75 µM amounted to 102%.
In the case of `C[C@@H](O)CC(=O)O` [(R)-3-Hydroxybutanoic acid], the remaining activity at 1.25 µM in test [1] (Well no.=7123) worked out at 106%. In test [2] (Well no.=7123), the remaining activity at 3.75 µM was 105%.
Regarding `CC(C)N(CC[C@H](c1ccccc1)c1cc(CO)ccc1O)C(C)C` [(R)-5-Hydroxymethyl Tolterodine], in test [1] (Well no.=7038), the remaining activity at 1.25 µM turned out to be 107%. In addition, in test [2] (Well no.=7038), the remaining activity at 3.75 µM is 107%.
For `[2H]C([2H])([2H])NC[C@H](O)c1cccc(O)c1` [(R)-(-)-Phenylephrine (hydrochloride)], in test [1] (Well no.=6707), the remaining activity at 1.25 µM amounted to 98.6%. Moreover, the remaining activity at 3.75 µM in test [2] (Well no.=6707) came out at 95.4%.
For `NCc1c[nH]c(=S)n1[C@@H]1CCc2c(F)cc(F)cc2C1` [(R)-Nepicastat HCl], in test [1] (Well no.=8886), the remaining activity at 1.25 µM amounted to 91.4%. Further, the remaining activity at 3.75 µM in test [2] (Well no.=8886) was 92%.
`N[C@H](CO)C(=O)O` [(R)-Serine]: the remaining activity at 1.25 µM in test [1] (Well no.=7739) amounted to 99.9%. The remaining activity at 3.75 µM in test [2] (Well no.=7739) was 100%.
Take `O[C@H](c1cc(C(F)(F)F)nc2c(C(F)(F)F)cccc12)[C@@H]1CCCCN1` [(R)-[2,8-bis(trifluoromethyl)-4-quinolinyl][(2S)-2-piperidinyl]methanol hydrochloride]: the remaining activity at 1.25 µM in test [1] (Well no.=5875) amounted to 105%. Also, the remaining activity at 3.75 µM in test [2] (Well no.=5875) was found to be 113%.
